Laboratory results taken from patent publication EP3981864A1, “DETERGENT COMPOSITION” (priority 2020, dated 2022).

Key:
[1] = system: Phaeosphaeria nodorum αDOX (SEQ ID NO: 2), fatty acid alpha-dioxygenase, Q0URU2, N-terminal His-tag variant SEQ ID NO: 251; test: Alpha-dioxygenase activity assay (oxygen consumption, TON); assay type: biochemical; conditions: fatty acid 100 µM, enzyme 6 ppm, 50 mM HEPES pH 9.0, 37°C; initial rate of oxygen consumption / enzyme concentration
From the text: (§1) Phaeosphaeria nodorum αDOX (SEQ ID NO: 2) is a fatty acid alpha-dioxygenase that converts fatty acids into the corresponding 2-hydroperoxy fatty acids and is included as an example of the present invention. A codon optimized gene (SEQ ID NO: 250) encoding for an alpha-dioxygenase variant (SEQ ID NO: 251), including an N-terminal amino acid sequence containing a His-tag was designed and synthesized by Genscript. After gene synthesis, the protein was expressed and purified. In brief, the complete synthetic gene sequence was subcloned into a pET30a vector using the NdeI/HindIII cloning sites. For heterologous expression, Escherichia coli BL21 (DE3) cells were transformed with the recombinant plasmid and a single colony was inoculated into LB medium containing kanamycin (50 mg/L). A pre-starter culture was then inoculated into flasks containing Magic Media (Thermo Fisher, Catalog # K6803) supplemented with kanamycin (50 mg/L) and incubated at 16 °C for 72 h. At an OD600nm = 0.5 - 1.0, 5-aminolevulinic acid (final concentration 0.5 mM) was added. Cells were harvested by centrifugation at 5000 rpm and 4°C and the pellet was lysed using a bacterial cell lysis buffer (B-PER - Themo Fisher, Waltham, MA). After centrifugation, the supernatant was collected, and the protein was purified by one-step purification using HisPur™ Ni-NTA Spin Columns (Thermo Scientific, Catalog # 88226) and standard protocols known in the art. The protein was concentrated using a 10 kDa MW cutoff Amicon Ultra centrifugal filter unit (Millipore Sigma, Catalog# UFC901024), followed by desalting using a disposable PD-10 desalting column (GE Healthcare Life Sciences, Catalog# 17085101) and a buffer containing 50 mM Tris-HCl, 500 mM NaCl, and 10% Glycerol at pH 8.0. […]
(§2) Reactions with alpha-dioxygenases were performed as follows. […] The reaction was incubated for up to 10 minutes at 37°C with 200 rpm agitation and the conversion was monitored using an oxygen sensor. The TON (in s-1) were calculated as the ratio between the initial rate of oxygen consumption (in µM/s) and the concentration of enzyme (in µM). […]

[2] = system: Gossypium raimondii αDOX (SEQ ID NO: 5), fatty acid alpha-dioxygenase, A0A0D2W0W0, N-terminal His-tag variant SEQ ID NO: 257; test: as above; assay type: biochemical; conditions: fatty acid 100 µM, enzyme 6 ppm, 50 mM HEPES pH 9.0, 37°C; initial rate of oxygen consumption / enzyme concentration
From the text: as §1, with “Gossypium raimondii” for “Phaeosphaeria nodorum”, “5)” for “2)”, “256)” for “250)”, “257),” for “251),”
as §2

## CCCCCCCC/C=C\CCCCCCCC(=O)O [Oleic Acid]
[1]
  Oleic Acid, TON: 0.99 s⁻¹
[2]
  Oleic Acid, TON: 1.68 s⁻¹

## CCCCCCCCCCCCCCCCCC(=O)O [Stearic Acid]
[1]
  Stearic Acid, TON: 8.80 s⁻¹
[2]
  Stearic Acid, TON: 1.68 s⁻¹

## CCCCCCCCCCCCCCCC(=O)O [Palmitic Acid]
[1]
  Palmitic Acid, TON: 20.63 s⁻¹
[2]
  Palmitic Acid, TON: 2.56 s⁻¹
